Earlier results, collected in patent US12165861B2, “Mass spectrometry method for measuring vitamin B6 in body fluid” (Quest Diagnostics Investments Incorporated, priority 2007, dated 2024).

## vitamin B6
100 mg of vitamin B6, under normal conditions
  time to plasma peak: 2 h
100 mg of vitamin B6, under normal conditions, plasma
  half-life: 8 h
Doses of over 25 mg
  change in plasma PLP: little change
